The values below come from patent EP1137645B1, “ALPHA-METHYLBENZYL-CONTAINING THIOUREA INHIBITORS OF HERPES VIRUSES CONTAINING A […] GROUP” (Wyeth, priority 1998, dated 2000).

SMILES strings stand for the structures. In brackets after ≈: the same amount, converted by molar mass. Like-named read-outs stand apart in the source and are kept apart here.

Assay [1] relates to HCMV recombinant mutant virus whose genome contains the prokaryotic beta-glucuronidase gene. Nature of the assay: microbe, parasite or virus in culture. It is filed as cell-based, human cytomegalovirus. To be noted: Human betaherpesvirus 5, Fibroblast. The method in brief:
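Human foreskin fibroblasts infected with HCMV recombinant carrying beta-glucuronidase under a viral promoter (e.g. RV145) in presence of compound. At 96 h post-infection, lysates assayed for beta-glucuronidase by colorimetric or fluorogenic substrate as replication readout; IC50 estimated from varying compound amounts.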

The test system of assay [2] is HSV- I. Description: HSV antiviral (ELISA) assay. It is filed as cell-based. To be noted: read-out: IC50 (ug/ml) HSV. The method in brief: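 Vero cells in DMEM with 2% FBS treated with compound 30 min before HSV-1 infection (MOI 0.006), then incubated ~24 h at 37°C. Viral replication measured by ELISA against glycoprotein D with β-galactosidase-linked secondary and fluorogenic substrate (ex 365/em 450 nm); IC50 relative to untreated fluorescence.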

Assay [3] relates to VZV strain Ellen. Nature of the assay: VZV antiviral (ELISA) assay. It is filed as cell-based. The method in brief: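 HFF cells infected with VZV Ellen at multiplicity below 0.1 overnight, then mixed infected/uninfected cells seeded with compound in DMEM/2% FBS and incubated three days at 37°C, 5% CO2.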
A general note: In an ELISA, binding on a coated surface is turned into a signal by an enzyme label.

Setting [4] is: read-out: IC50 ug/ml HCMV, HCMV, human foreskin fibroblasts.
The mark [5] stands for this setting: Human alphaherpesvirus 3, HFF, read-out: IC50 (ug/ml) VZV, VZV strain Ellen, HFF cells, ELISA.
Where [6] appears, read: Human alphaherpesvirus 3, HFF, read-out: IC50 (ug/ml) VZV.
The mark [7] stands for this setting: Human alphaherpesvirus 3, VZV strain Ellen, HFF cells, ELISA, read-out: IC50 (ug/ml) VZV.

Take `CC(NC(=S)Nc1ccc(NC(=O)c2cc3ccccc3cn2)cc1)c1cc2ccccc2o1` (stereo not drawn) [Example 985, Isoquinoline-3-carboxylic acid {4-[3-(1-benzofuran-2-yl-ethyl)-thioureido]-phenyl}-amide]: the IC50 in assay [1] (setting [4]) is > 10 µg/mL; in assay [2] (Vero) it was > 10 µg/mL; in assay [3] (setting [5]) it was 0.035 µg/mL (≈ 0.075 µM).

Take `CC(NC(=S)Nc1ccc(NC(=O)c2cc3ccccc3cn2)cc1)c1ccc(C#N)cc1` (stereo not drawn) [Example 986, Isoquinoline-3-carboxylic acid (4-{3-[1-(4-cyano-phenyl)-ethyl]-thioureido}-phenyl)-amide]: the figures for the IC50 in assay [1] (setting [4]), in assay [2] (Vero) and in assay [3] (setting [5]) were 5.2 µg/mL (≈ 11.5 µM), > 10 µg/mL and 0.05 µg/mL (≈ 0.111 µM), respectively.

Consider `CC(NC(=S)Nc1ccc(NC(=O)c2cc3ccccc3cn2)cc1)c1ccc(Br)cc1` (stereo not drawn) [Example 987, Isoquinoline-3-carboxylic acid (4-{3-[1-(4-bromo-phenyl)-ethyl]-thioureido}-phenyl)-amide], for which the IC50 in assay [1] (setting [4]) was determined as 1.5 µg/mL (≈ 2.97 µM); in assay [2] (Vero), 3 µg/mL (≈ 5.94 µM); in assay [3] (setting [5]), 0.046 µg/mL (≈ 0.091 µM).

For the compound `CC(NC(=S)Nc1ccc(NC(=O)c2cnc3ccccc3c2)cc1)c1ccc(F)cc1` (stereo not drawn) [Example 988, Quinoline-3-carboxylic acid (4-{3-[1-(4-fluoro-phenyl)-ethyl]-thioureido}-phenyl)-amide], the IC50 was > 10 µg/mL in assay [1] (setting [4]); > 10 µg/mL in assay [2] (HSV- I, Vero cells, ELISA); 3.4 µg/mL (≈ 7.65 µM) in assay [3] (setting [6]).

Consider `CC(NC(=S)Nc1ccc(NC(=O)c2ccnc3ccccc23)cc1)c1ccc(F)cc1` (stereo not drawn) [Example 989, Quinoline-4-carboxylic acid (4-{3-[1-(4-fluoro-phenyl)-ethyl]-thioureido}-phenyl)-amide], for which the IC50 was determined as 2.9 µg/mL (≈ 6.52 µM) in assay [1] (setting [4]); 4.1 µg/mL (≈ 9.22 µM) in assay [2] (HSV- I, Vero cells, ELISA); 3 µg/mL (≈ 6.75 µM) in assay [3] (setting [6]).

In the case of `CC(NC(=S)Nc1ccc(NC(=O)c2ccc3ncccc3c2)cc1)c1ccc(F)cc1` (stereo not drawn) [Example 990, Quinoline-6-carboxylic acid (4-{3-[1-(4-fluoro-phenyl)-ethyl]-thioureido}-phenyl)-amide], the IC50 worked out at 4.4 µg/mL (≈ 9.9 µM) in assay [1] (setting [4]); 8.9 µg/mL (≈ 20 µM) in assay [2] (HSV- I, Vero cells, ELISA); 3.5 µg/mL (≈ 7.87 µM) in assay [3] (setting [6]).

With `CC(NC(=S)Nc1ccc(NC(=O)c2cccc3cccnc23)cc1)c1ccc(F)cc1` (stereo not drawn) [Example 991, Quinoline-8-carboxylic acid (4-{3-[1-(4-fluoro-phenyl)-ethyl]-thioureido}-phenyl)-amide], the IC50 in assay [1] (setting [4]) was 7.4 µg/mL (≈ 16.6 µM); in assay [2] (HSV- I, Vero cells, ELISA) it was > 10 µg/mL; in assay [3] (setting [6]) it was 0.1 µg/mL (≈ 0.225 µM).

Consider `CC(C)COc1ccc(NC(=S)Nc2ccc(NC(=O)c3ccccc3F)cc2)cc1Cl` [Example 994, N-{4-[3-(3-Chloro-4-isobutoxy-phenyl)-thioureido]-phenyl}-2-fluoro-benzamide], for which the IC50 in assay [1] (setting [4]), in assay [2] (Vero) and in assay [3] (setting [5]) was > 10 µg/mL throughout.

On to `COc1ccc(NC(=S)Nc2ccc(NC(=O)c3ccccc3F)cc2)cc1F` [Example 995, 2-Fluoro-N-{4-[3-(3-fluoro-4-methoxy-phenyl)-thioureido]-phenyl}-benzamide], for which the IC50 was > 10 µg/mL in assay [1] (read-out: IC50 ug/ml HCMV); > 10 µg/mL in assay [2] (HSV- I, Vero cells, ELISA); > 10 µg/mL in assay [3] (setting [7]).

On to `COCCOc1ccc(NC(=S)Nc2ccc(NC(=O)c3ccccc3F)cc2)cc1Cl` [Example 996, N-(4-{3-[3-Chloro-4-(2-methoxy-ethoxy)-phenyl]-thioureido}-phenyl)-2-fluoro-benzamide], for which the figures for the IC50 in assay [1] (setting [4]), in assay [2] (Vero) and in assay [3] (setting [5]) were > 10 µg/mL, > 10 µg/mL and 10 µg/mL (≈ 21.1 µM), respectively.

In the case of `Cc1ccc(NC(=S)Nc2ccc(NC(=O)c3ccccc3F)cc2)cc1F` [Example 997, 2-Fluoro-N-{4-[3-(3-fluoro-4-methyl-phenyl)-thioureido]-phenyl}-benzamide], the IC50 in assay [1] (read-out: IC50 ug/ml HCMV) was 4 µg/mL (≈ 10.1 µM); in assay [2] (HSV- I, Vero cells, ELISA), 1.9 µg/mL (≈ 4.78 µM); in assay [3] (setting [7]), > 10 µg/mL.

`COc1ccc(NC(=S)Nc2ccc(NC(=O)c3ccccc3F)cc2)cc1C(F)(F)F` [Example 998, 2-Fluoro-N-{4-[3-(4-methoxy-3-trifluoromethyl-phenyl)-thioureido]-phenyl}-benzamide]: the IC50 in assay [1] (read-out: IC50 ug/ml HCMV) was > 10 µg/mL; in assay [2] (HSV- I, Vero cells, ELISA) it was 3 µg/mL (≈ 6.47 µM); in assay [3] (setting [7]), 5 µg/mL (≈ 10.8 µM).

In the case of `Nc1ccc(C(F)(F)F)cc1NC(=S)Nc1ccc(NC(=O)c2ccccc2F)cc1` [Example 999, N-{4-[3-(2-Amino-5-trifluoromethyl-phenyl)-thioureido]-phenyl}-2-fluoro-benzamide], the IC50 was found to be 4 µg/mL (≈ 8.92 µM) in assay [1] (read-out: IC50 ug/ml HCMV); 2.2 µg/mL (≈ 4.91 µM) in assay [2] (HSV- I, Vero cells, ELISA); 9.4 µg/mL (≈ 21 µM) in assay [3] (setting [7]).

As to `COc1ccc(C(C)NC(=S)Nc2ccc(NC(=O)c3ccccc3F)cc2)cc1Cl` (stereo not drawn) [Example 1000, N-(4-{3-[1-(3-Chloro-4-methoxy-phenyl)-ethyl]-thioureido}-phenyl)-2-fluoro-benzamide], the results for the IC50 in assay [1] (setting [4]), in assay [2] (Vero) and in assay [3] (setting [5]) were 2 µg/mL (≈ 4.37 µM), > 10 µg/mL and 6 µg/mL (≈ 13.1 µM), respectively.

`O=C(Nc1ccc(NC(=S)Nc2cc(Cl)ccc2O)cc1)c1ccccc1F` [Example 1001, N-{4-[3-(5-Chloro-2-hydroxy-phenyl)-thioureido]-phenyl}-2-fluoro-benzamide]: the IC50 is 2.6 µg/mL (≈ 6.25 µM) in assay [1] (setting [4]), 4.3 µg/mL (≈ 10.3 µM) in assay [2] (Vero) and 3.6 µg/mL (≈ 8.66 µM) in assay [3] (setting [5]).

Turning to `CC(NC(=S)Nc1ccc(NC(=O)c2ccccc2F)cc1)c1cc2ccccc2o1` (stereo not drawn) [Example 1002, N-{4-[3-(1-Benzofuran-2-yl-ethyl)-thioureido]-phenyl}-2-fluoro-benzamide], the IC50 in assay [1] (setting [4]) was 2.1 µg/mL (≈ 4.84 µM); in assay [2] (Vero) it was > 10 µg/mL; in assay [3] (setting [5]), 0.08 µg/mL (≈ 0.185 µM).

Regarding `Cc1ccc(NC(=S)Nc2ccc(NC(=O)c3ccccc3F)cc2)cc1C(F)(F)F` [Example 1003, 2-Fluoro-N-{4-[3-(4-methyl-3-trifluoromethyl-phenyl)-thioureido]-phenyl}-benzamide], the IC50 in assay [1] (read-out: IC50 ug/ml HCMV) was > 10 µg/mL; in assay [2] (HSV- I, Vero cells, ELISA), > 10 µg/mL; in assay [3] (setting [7]), > 10 µg/mL.

As to `C[C@H](NC(=S)Nc1ccc(NC(=O)c2ccccc2F)cc1)c1ccc(Br)cc1` [Example 1004, (S)-N-(4-{3-[1-(4-Bromo-phenyl)-ethyl]-thioureido}-phenyl)-2-fluoro-benzamide], the figures for the IC50 in assay [1] (setting [4]), in assay [2] (Vero) and in assay [3] (setting [5]) were 4.2 µg/mL (≈ 8.89 µM), > 10 µg/mL and 0.06 µg/mL (≈ 0.127 µM), respectively.

Turning to `COc1cc(OCC(F)(F)F)ccc1NC(=S)Nc1ccc(NC(=O)c2ccccc2F)cc1` [Example 1006, 2-Fluoro-N-(4-{3-[2-methoxy-4-(2,2,2-trifluoro-ethoxy)-phenyl]-thioureido}-phenyl)-benzamide], the IC50 came to 8.9 µg/mL (≈ 18 µM) in assay [1] (read-out: IC50 ug/ml HCMV); 8.3 µg/mL (≈ 16.8 µM) in assay [2] (HSV- I, Vero cells, ELISA); 11 µg/mL (≈ 22.3 µM) in assay [3] (setting [7]).

For `Nc1ccc(F)cc1NC(=S)Nc1ccc(NC(=O)c2ccccc2F)cc1` [Example 1007, N-{4-[3-(2-Amino-5-fluoro-phenyl)-thioureido]-phenyl}-2-fluoro-benzamide], the IC50 in assay [1] (read-out: IC50 ug/ml HCMV) was > 10 µg/mL; in assay [2] (HSV- I, Vero cells, ELISA) it was 1.2 µg/mL (≈ 3.01 µM); in assay [3] (setting [7]) it was > 10 µg/mL.

In the case of `CC(NC(=S)Nc1ccc(NC(=O)c2ccccc2F)cc1)c1ccc(S(=O)(=O)N(C)C)cc1` (stereo not drawn) [Example 1008, N-(4-{3-[1-(4-Dimethylsulfamoyl-phenyl)-ethyl]-thioureido}-phenyl)-2-fluoro-benzamide], the IC50 in assay [1] (setting [4]) was 8.5 µg/mL (≈ 17 µM); in assay [2] (Vero), > 10 µg/mL; in assay [3] (setting [5]), > 10 µg/mL.
